Measurements taken from patent US6087361A, “Aryl-imidazolines and aryl-imidazoles useful as α-2 adrenergic agonists without cardiovascular side effects” (Allergan Sales, Inc., priority 1997, dated 2000).

Settings: rabbit

Cc1c(NC2=NCCN2)ccc2c1NCCO2 [Example 16]
IOP of the untreated eye (systemic effect) (in vivo): without lowering IOP in the untreated eye | lowering of intraocular pressure (IOP), treated eye (single drop of 0.001%, topical, one eye): greater effect in lowering IOP than clonidine
